Series [1] deals with cellular thymidine kinase (TK). The following applies: cited from earlier work.
A further series deals with HIV. The following applies: qualitative; cited from earlier work.
The subject of series [2] is HIV-1 based vector containing wild-type (wt) HIV-1 RT. It counts as cell-based. The following applies: for EC50: read-out: EC50(HOS-313), HOS-313 cells (HSV-1 TK), 48 h, wt HIV-1 RT vector.
Another series deals with HOS-313 cells. It counts as cell-based, human. The following applies: read-out: CC50(HOS-313), absence of virus, ATP level.
Series [3] deals with HIV-1 based vector containing wild-type (wt) HIV-1 RT. The following applies: for EC50: read-out: EC50(HOS), HOS cells, 48 h, wt HIV-1 RT vector.

Where two headings read alike, the source gives them in different places.

Take `Cc1cn([C@H]2C[C@H](N=[N+]=[N-])[C@@H](CO)O2)c(=O)[nH]c1=O` [AZT]: the “Affinity for cellular thymidine kinase (TK)” value in series [1] (qualitative) is recorded as “equivalent to that of thymidine itself”.
`Cc1cn([C@H]2C[C@H](O)[C@]3(CO)C[C@H]23)c(=O)[nH]c1=O` [Compound 3a, North-methanocarbathymidine]: the Anti-HIV activity result in the series with HIV was “inactive”.
On to `Nc1ncnc2c1ncn2[C@H]1C=C[C@]2(CO)C[C@H]12` [Compound 4c, ((1′R, 4′S, 5′S)-4-(6-Amino-9H-purin-9-yl)bicyclo[3.1.0]hex-2-en-1-yl)methanol], for which the EC50 (as a rule, the concentration that produces a half-maximal response) came out at 11.1 µM in series [2] and 16.7 µM in series [3]. The CC50 (usually the concentration at which the toxic effect on the cells reaches its halfway point) was found to be 246 µM in the series on HOS-313 cells and 423 µM in the series on HOS cells (read-out: CC50(HOS), HOS cells, absence of virus, ATP level). Besides, the “Selectivity index (cytotoxicity versus infectivity), HOS cells” value in series [3] was 25 fold. The Anti-HIV activity entry with HIV-1 is on record as “active”.
Take `Nc1ccn([C@H]2C=C[C@]3(CO)C[C@H]23)c(=O)n1` [Compound 4d, 4-Amino-1-((1′S, 2′S, 5′R)-5-(hydroxymethyl)bicyclo[3.1.0]hex-3-en-2-yl)pyrimidin-2(1H)-one]: the “Cytotoxicity (qualitative)” value in the series with HOS cells is “relatively non-toxic”. In the series with HIV-1, the Anti-HIV activity entry was “inactive”.
For the molecule `Cc1cn([C@@]23C=C[C@@H](CO)[C@@H]2C3)c(=O)[nH]c1=O` [Compound 6a, 1-((1′S, 4′R, 5′S)-4-(Hydroxymethyl)bicyclo[3.1.0]hex-2-en-1-yl)-5-methylpyrimidine-2,4(1H,3H)-dione], in the series with HIV-1, the Anti-HIV activity result was “inactive”.
Turning to `Nc1nc2c(ncn2[C@@]23C=C[C@@H](CO)[C@@H]2C3)c(=O)[nH]1` [Compound 6b, 2-Amino-9-((1′S, 4′R, 5′S)-4-(hydroxymethyl)bicyclo[3.1.0]hex-2-en-1-yl)-1H-purin-6(9H)-one], the Anti-HIV activity result in the series on HIV-1 is “inactive”.
Still for that read-out and setting: next, `Nc1ncnc2c1ncn2[C@@]12C=C[C@@H](CO)[C@@H]1C2` [Compound 6c, ((1′S, 2′R, 5′S)-5-(6-Amino-9H-purin-9-yl)bicyclo[3.1.0]hex-3-en-2-yl)methanol]: “inactive”.
In the case of `Nc1ccn([C@@]23C=C[C@@H](CO)[C@@H]2C3)c(=O)n1` [Compound 6d, 4-Amino-1-((1′S, 4′R, 5′S)-4-(hydroxymethyl)bicyclo[3.1.0]hex-2-en-1-yl)pyrimidin-2(1H)-one], in series [2], the “Selectivity index, HOS-313 cells” value came to 130 and the concentration giving a half-maximal response (EC50) is 3 µM. Further, in series [3], the “Selectivity index (cytotoxicity versus infectivity), HOS cells” value turned out to be 15.8 and the EC50 was 26.8 µM. Moreover, the Anti-HIV activity result in the series on HIV-1 was “+/− active”.
On to `Cc1cn([C@H]2C=C[C@@H](CO)O2)c(=O)[nH]c1=O` [Compound D4T, stavudine], for which the “Phosphorylation by cellular thymidine kinase (TK), less efficient than for AZT” value in series [1] was 500 fold.

Values taken from PMC6776084 (ChemMedChem, 2009).
